Active and inactive are the calls of the source. How the calls were made is not given here.
Test system: CCRIS mutagenicity, Ames/micronucleus/aberration tests
Assay: CCRIS mutagenicity studies
[1] = Test System: AMES SALMONELLA TYPHIMURIUM, Strain/Indicator: TA98, Metabolic Activation: NONE, Method: STANDARD PLATE
[2] = Test System: AMES SALMONELLA TYPHIMURIUM, Strain/Indicator: TA100, Metabolic Activation: NONE, Method: STANDARD PLATE

For `C#C[C@]1(O)CC[C@H]2[C@@H]3CCC4=CC(=O)CC[C@@H]4[C@H]3CC[C@@]21C`, the mutagenic call (End Point: IN VITRO CHROMOSOMAL ABERRATIONS, Test System: HUMAN LYMPHOCYTES, Metabolic Activation: NONE) was “inactive; negative”, the mutagenic call (End Point: IN VITRO CHROMOSOMAL ABERRATIONS, Test System: HUMAN LYMPHOCYTES, Metabolic Activation: RAT, LIVER, S-9, PHENOBARBITONE) was “inactive; negative” and the mutagenic call (End Point: IN VIVO MICRONUCLEUS, Test System: HEPATOCYTES, Species: RAT, Strain/Sex: SPRAGUE-DAWLEY/FEMALE, Route: INTRAGASTRIC (GAVAGE)) was “inactive; negative (nonstatistically significant increase)”. The mutagenic call (Test System: AMES SALMONELLA TYPHIMURIUM, Strain/Indicator: TA98, Metabolic Activation: NONE) was “inactive; negative”, the mutagenic call (Test System: AMES SALMONELLA TYPHIMURIUM, Strain/Indicator: TA98, Metabolic Activation: NONE, Method: PREINCUBATION) was “inactive; negative” and the mutagenic call [1] was “inactive; negative”. The mutagenic call (Test System: AMES SALMONELLA TYPHIMURIUM, Strain/Indicator: TA98, Metabolic Activation: RAT, LIVER, S-9, AROCLOR 1254, Method: PREINCUBATION) was “inactive; negative”, the mutagenic call (Test System: AMES SALMONELLA TYPHIMURIUM, Strain/Indicator: TA98, Metabolic Activation: RAT, LIVER, S-9, AROCLOR 1254, Method: STANDARD PLATE) was “inactive; negative” and the mutagenic call (Test System: AMES SALMONELLA TYPHIMURIUM, Strain/Indicator: TA98, Metabolic Activation: S-9) was “inactive; negative”. The mutagenic call (Test System: AMES SALMONELLA TYPHIMURIUM, Strain/Indicator: TA100, Metabolic Activation: NONE) was “inactive; negative”, the mutagenic call (Test System: AMES SALMONELLA TYPHIMURIUM, Strain/Indicator: TA100, Metabolic Activation: NONE, Method: PREINCUBATION) was “inactive; negative” and the mutagenic call [2] was “inactive; negative”. For the same compound, the mutagenic call (Test System: AMES SALMONELLA TYPHIMURIUM, Strain/Indicator: TA100, Metabolic Activation: RAT, LIVER, S-9, AROCLOR 1254, Method: PREINCUBATION) was “inactive; negative”, the mutagenic call (Test System: AMES SALMONELLA TYPHIMURIUM, Strain/Indicator: TA100, Metabolic Activation: RAT, LIVER, S-9, AROCLOR 1254, Method: STANDARD PLATE) was “inactive; negative” and the mutagenic call (Test System: AMES SALMONELLA TYPHIMURIUM, Strain/Indicator: TA100, Metabolic Activation: S-9) was “inactive; negative”. For the same compound, the mutagenic call (Test System: AMES SALMONELLA TYPHIMURIUM, Strain/Indicator: TA1535, Metabolic Activation: NONE) was “inactive; negative”, the mutagenic call (Test System: AMES SALMONELLA TYPHIMURIUM, Strain/Indicator: TA1535, Metabolic Activation: NONE, Method: PREINCUBATION) was “inactive; negative” and the mutagenic call (Test System: AMES SALMONELLA TYPHIMURIUM, Strain/Indicator: TA1535, Metabolic Activation: NONE, Method: STANDARD PLATE) was “inactive; negative”. For the same compound, the mutagenic call (Test System: AMES SALMONELLA TYPHIMURIUM, Strain/Indicator: TA1535, Metabolic Activation: RAT, LIVER, S-9, AROCLOR 1254, Method: PREINCUBATION) was “inactive; negative”, the mutagenic call (Test System: AMES SALMONELLA TYPHIMURIUM, Strain/Indicator: TA1535, Metabolic Activation: RAT, LIVER, S-9, AROCLOR 1254, Method: STANDARD PLATE) was “inactive; negative” and the mutagenic call (Test System: AMES SALMONELLA TYPHIMURIUM, Strain/Indicator: TA1535, Metabolic Activation: S-9) was “inactive; negative”. For the same compound, the mutagenic call (Test System: AMES SALMONELLA TYPHIMURIUM, Strain/Indicator: TA1537, Metabolic Activation: NONE) was “inactive; negative”, the mutagenic call (Test System: AMES SALMONELLA TYPHIMURIUM, Strain/Indicator: TA1537, Metabolic Activation: NONE, Method: PREINCUBATION) was “inactive; negative” and the mutagenic call (Test System: AMES SALMONELLA TYPHIMURIUM, Strain/Indicator: TA1537, Metabolic Activation: NONE, Method: STANDARD PLATE) was “inactive; negative”. For the same compound, the mutagenic call (Test System: AMES SALMONELLA TYPHIMURIUM, Strain/Indicator: TA1537, Metabolic Activation: RAT, LIVER, S-9, AROCLOR 1254, Method: PREINCUBATION) was “inactive; negative”, the mutagenic call (Test System: AMES SALMONELLA TYPHIMURIUM, Strain/Indicator: TA1537, Metabolic Activation: RAT, LIVER, S-9, AROCLOR 1254, Method: STANDARD PLATE) was “inactive; negative” and the mutagenic call (Test System: AMES SALMONELLA TYPHIMURIUM, Strain/Indicator: TA1537, Metabolic Activation: S-9) was “inactive; negative”. The mutagenic call (Test System: AMES SALMONELLA TYPHIMURIUM, Strain/Indicator: TA1538, Metabolic Activation: NONE, Method: PREINCUBATION) was “inactive; negative”, the mutagenic call (Test System: AMES SALMONELLA TYPHIMURIUM, Strain/Indicator: TA1538, Metabolic Activation: NONE, Method: STANDARD PLATE) was “inactive; negative” and the mutagenic call (Test System: AMES SALMONELLA TYPHIMURIUM, Strain/Indicator: TA1538, Metabolic Activation: RAT, LIVER, S-9, AROCLOR 1254, Method: PREINCUBATION) was “inactive; negative”. For the same compound, the mutagenic call (Test System: AMES SALMONELLA TYPHIMURIUM, Strain/Indicator: TA1538, Metabolic Activation: RAT, LIVER, S-9, AROCLOR 1254, Method: STANDARD PLATE) was “inactive; negative”, the mutagenic call (Test System: E. COLI, Strain/Indicator: WP2 UVRA, Metabolic Activation: NONE) was “inactive; negative” and the mutagenic call (Test System: E. COLI, Strain/Indicator: WP2 UVRA, Metabolic Activation: S-9) was “inactive; negative”.

`O=C(CCCl)N=c1sn(C(=O)CCCl)c2ccccc12` was tested, and the mutagenic call (Test System: AMES SALMONELLA TYPHIMURIUM, Strain/Indicator: TA100, Metabolic Activation: S-9, Method: STANDARD PLATE) was “inactive; negative”.

In the case of `Cc1ccc(S(=O)(=O)OC(C)C)cc1`, the mutagenic call (End Point: IN VITRO MICRONUCLEUS, Test System: MOUSE LYMPHOMA L5178Y CELLS, Metabolic Activation: NONE) is reported as “active; positive”, the mutagenic call (End Point: IN VITRO MICRONUCLEUS, Test System: MOUSE LYMPHOMA L5178Y CELLS, Metabolic Activation: RAT, LIVER, S-9) is reported as “active; positive” and the mutagenic call (End Point: In vitro micronucleus, Test System: Chinese Hamster Ovary (CHO-WBL) cells, Metabolic Activation: None) is reported as “active; positive (p<0.05)”. The mutagenic call [2] was “active; positive” and the mutagenic call (Test System: AMES SALMONELLA TYPHIMURIUM, Strain/Indicator: TA100, Metabolic Activation: RAT, LIVER, S-9, Method: STANDARD PLATE) was “active; positive”.

With `CN(C(=O)c1csc([N+](=O)[O-])c1)c1ccccc1` the mutagenic call [1] was “active; positive” and the mutagenic call [2] was “active; positive”.

Source: PubChem BioAssay AID1259407 (Chemical Carcinogenesis Research Information System (CCRIS), 2018)
